In ChEMBL document CHEMBL4715730, “Design, synthesis, and pharmacological evaluation of multitarget-directed ligands with both serotonergic subtype 4 receptor (5-HT4R) partial agonist and 5-HT6R antagonist activities, as potential treatment of Alzheimer's disease” (Eur J Med Chem, 2016) one finds inhibition and Ki data, which are given here for ten molecules.

Molecules are shown by their SMILES. Calls of active or inactive are those of the source. The rule behind the calls is not given here.

Sequence of 5-hydroxytryptamine receptor 4 (Cavia porcellus) (O70528 whole entry): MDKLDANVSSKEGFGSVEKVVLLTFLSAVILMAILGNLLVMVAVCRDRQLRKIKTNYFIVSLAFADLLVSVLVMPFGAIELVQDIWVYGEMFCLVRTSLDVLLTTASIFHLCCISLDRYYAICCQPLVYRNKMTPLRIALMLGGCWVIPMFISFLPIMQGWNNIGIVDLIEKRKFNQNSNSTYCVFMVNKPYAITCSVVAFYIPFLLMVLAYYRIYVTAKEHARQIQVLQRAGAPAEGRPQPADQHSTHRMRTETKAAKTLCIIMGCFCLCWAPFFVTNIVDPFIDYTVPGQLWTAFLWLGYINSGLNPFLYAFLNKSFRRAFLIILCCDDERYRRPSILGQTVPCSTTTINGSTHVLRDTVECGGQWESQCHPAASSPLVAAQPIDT

The first assay concerns the target 5-hydroxytryptamine receptor 4 (Cavia porcellus) (UniProt O70528). The experiment in a line: Displacement of [3H]-GR113808 from guinea pig brain 5HT4 receptor at 1 uM in presence of serotonin incubated for 30 mins. Type of assay: tissue-based. The note with it: filed as agonist.
For the molecule `COc1cc(N)c(Cl)cc1C(=O)CCC1CCN(CCNS(=O)(=O)c2ccc(C)cc2)CC1`, the inhibition turned out to be 100%.

Consider `COc1cc(N)c(Cl)cc1C(=O)CCC1CCN(CCNS(=O)(=O)c2cc(Br)ccc2Br)CC1`, for which the inhibition is 100%.

Take `COc1cc(N)c(Cl)cc1C(=O)CCC1CCN(CCNS(=O)(=O)c2ccc3c(c2)NC(=O)CO3)CC1`: the inhibition is 100%.

As to `COc1ccc(S(=O)(=O)NCCN2CCC(CCC(=O)c3cc(Cl)c(N)cc3OC)CC2)cc1`, the inhibition came to 100%.

For `COc1cc(N)c(Cl)cc1C(=O)CCC1CCN(CCNS(=O)(=O)c2ccc(NC(C)=O)cc2)CC1`, the inhibition is 100%.

In the case of `COc1cc(N)c(Cl)cc1C(=O)CCC1CCN(CCNS(=O)(=O)c2ccc3c(c2)N(C)CCO3)CC1`, the inhibition was determined as 100%.

With `COc1cc(N)c(Cl)cc1C(=O)CCC1CCN(CCNS(=O)(=O)c2ccc(OC)c(N3CCN(C)CC3)c2)CC1`, the inhibition came out at 97%.

For the molecule `COc1ccc(S(=O)(=O)NCCN2CCC(CCC(=O)c3cc(Cl)c(N)cc3OC)CC2)cc1Cl`, the inhibition is 100%.

The target of another assay is T1, 5-hydroxytryptamine receptor 6 (Homo sapiens, UniProt P50406). The experiment in a line: Displacement of [3H]-LSD from human 5-HT6 receptor expressed in HEK293 cells in presence of serotonin incubated for 60 mins. Type of assay: cell-based. Particulars: hek293. A general note: Loss of bound radioactivity is the signal in a displacement assay; it reports binding, not function.
T1 sequence (P50406 whole entry): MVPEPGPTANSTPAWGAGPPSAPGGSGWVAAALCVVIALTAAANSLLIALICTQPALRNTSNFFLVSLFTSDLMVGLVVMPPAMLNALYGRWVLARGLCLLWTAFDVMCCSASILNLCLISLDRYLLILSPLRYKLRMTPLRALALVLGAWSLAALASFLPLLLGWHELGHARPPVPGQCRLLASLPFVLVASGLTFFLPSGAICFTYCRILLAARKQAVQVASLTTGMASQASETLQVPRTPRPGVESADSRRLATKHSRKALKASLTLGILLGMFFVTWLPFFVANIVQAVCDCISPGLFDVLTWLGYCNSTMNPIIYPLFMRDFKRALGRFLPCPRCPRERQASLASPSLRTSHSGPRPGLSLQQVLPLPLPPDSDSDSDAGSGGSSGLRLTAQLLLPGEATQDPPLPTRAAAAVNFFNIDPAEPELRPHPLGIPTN
Consider `COc1ccc(NS(=O)(=O)c2sc3ccc(Cl)cc3c2C)cc1N1CCNCC1`, for which the Ki result was “Active”.

Turning to `CCCCN1CCC(CCC(=O)c2cc(Cl)c(N)cc2OC)CC1`, the Ki entry is recorded as “Active”.

Staying with this assay, now noted: read-out: Ki.
For the molecule `COc1cc(N)c(Cl)cc1C(=O)CCC1CCN(CCNS(=O)(=O)c2ccc(NC(C)=O)cc2)CC1`, the Ki came to 0.834 µM.

In the case of `COc1ccc(S(=O)(=O)NCCN2CCC(CCC(=O)c3cc(Cl)c(N)cc3OC)CC2)cc1Cl`, the Ki came out at 0.158 µM.

Another assay concerns the target T1, 5-hydroxytryptamine receptor 6. Nature of the assay: Displacement of [3H]-LSD from human 5-HT6 receptor expressed in HEK293 cells at 0.01 uM in presence of serotonin incubated for 60 mins.
Conditions: not given
The class given is cell-based.
For the molecule `COc1cc(N)c(Cl)cc1C(=O)CCC1CCN(CCNS(=O)(=O)c2ccc(C)cc2)CC1`, the inhibition result was “inactive”.

Turning to `COc1cc(N)c(Cl)cc1C(=O)CCC1CCN(CCNS(=O)(=O)c2cc(Br)ccc2Br)CC1`, the inhibition was 16%.

In the case of `COc1cc(N)c(Cl)cc1C(=O)CCC1CCN(CCNS(=O)(=O)c2ccc3c(c2)NC(=O)CO3)CC1`, the inhibition result is “inactive”.

In the case of `COc1ccc(S(=O)(=O)NCCN2CCC(CCC(=O)c3cc(Cl)c(N)cc3OC)CC2)cc1`, the inhibition was 36%.

As to `COc1cc(N)c(Cl)cc1C(=O)CCC1CCN(CCNS(=O)(=O)c2ccc(NC(C)=O)cc2)CC1`, the inhibition was determined as 7%.

For `COc1cc(N)c(Cl)cc1C(=O)CCC1CCN(CCNS(=O)(=O)c2ccc3c(c2)N(C)CCO3)CC1`, the inhibition entry was “inactive”.

In the case of `COc1cc(N)c(Cl)cc1C(=O)CCC1CCN(CCNS(=O)(=O)c2ccc(OC)c(N3CCN(C)CC3)c2)CC1`, the inhibition was determined as 4%.

For the molecule `COc1ccc(S(=O)(=O)NCCN2CCC(CCC(=O)c3cc(Cl)c(N)cc3OC)CC2)cc1Cl`, the inhibition is 20%.

Another assay concerns the target 5-hydroxytryptamine receptor 4 (Cavia porcellus) (UniProt O70528). Nature of the assay: Displacement of [3H]-GR113808 from guinea pig brain 5HT4 receptor at 0.01 uM in presence of serotonin incubated for 30 mins.
Conditions: not given
The class given is tissue-based.
`COc1cc(N)c(Cl)cc1C(=O)CCC1CCN(CCNS(=O)(=O)c2ccc(C)cc2)CC1`: the inhibition was 20%.

As to `COc1cc(N)c(Cl)cc1C(=O)CCC1CCN(CCNS(=O)(=O)c2ccc3c(c2)NC(=O)CO3)CC1`, the inhibition came out at 30%.

For the molecule `COc1cc(N)c(Cl)cc1C(=O)CCC1CCN(CCNS(=O)(=O)c2ccc3c(c2)N(C)CCO3)CC1`, the inhibition came out at 12%.

The same assay, now with this note: filed as agonist.
On to `COc1cc(N)c(Cl)cc1C(=O)CCC1CCN(CCNS(=O)(=O)c2cc(Br)ccc2Br)CC1`, for which the inhibition was 51%.

Consider `COc1ccc(S(=O)(=O)NCCN2CCC(CCC(=O)c3cc(Cl)c(N)cc3OC)CC2)cc1`, for which the inhibition stood at 48%.

In the case of `COc1cc(N)c(Cl)cc1C(=O)CCC1CCN(CCNS(=O)(=O)c2ccc(NC(C)=O)cc2)CC1`, the inhibition stood at 56%.

For `COc1cc(N)c(Cl)cc1C(=O)CCC1CCN(CCNS(=O)(=O)c2ccc(OC)c(N3CCN(C)CC3)c2)CC1`, the inhibition was determined as 75%.

Regarding `COc1ccc(S(=O)(=O)NCCN2CCC(CCC(=O)c3cc(Cl)c(N)cc3OC)CC2)cc1Cl`, the inhibition amounted to 41%.

Another assay addresses T1, 5-hydroxytryptamine receptor 6. Nature of the assay: Displacement of [3H]-LSD from human 5-HT6 receptor expressed in HEK293 cells at 1 uM in presence of serotonin incubated for 60 mins. Type of assay: cell-based.
Conditions: not given
Regarding `COc1cc(N)c(Cl)cc1C(=O)CCC1CCN(CCNS(=O)(=O)c2ccc(C)cc2)CC1`, the inhibition amounted to 15%.

In the case of `COc1cc(N)c(Cl)cc1C(=O)CCC1CCN(CCNS(=O)(=O)c2ccc3c(c2)N(C)CCO3)CC1`, the inhibition is 7%.

Still in this assay, the particulars now being: filed as agonist.
In the case of `COc1cc(N)c(Cl)cc1C(=O)CCC1CCN(CCNS(=O)(=O)c2ccc3c(c2)NC(=O)CO3)CC1`, the inhibition was 40%.

The same assay, now with this note: filed as antagonist.
For `COc1cc(N)c(Cl)cc1C(=O)CCC1CCN(CCNS(=O)(=O)c2cc(Br)ccc2Br)CC1`, the inhibition came out at 52%.

On to `COc1ccc(S(=O)(=O)NCCN2CCC(CCC(=O)c3cc(Cl)c(N)cc3OC)CC2)cc1`, for which the inhibition turned out to be 52%.

`COc1cc(N)c(Cl)cc1C(=O)CCC1CCN(CCNS(=O)(=O)c2ccc(NC(C)=O)cc2)CC1`: the inhibition was 67%.

Turning to `COc1cc(N)c(Cl)cc1C(=O)CCC1CCN(CCNS(=O)(=O)c2ccc(OC)c(N3CCN(C)CC3)c2)CC1`, the inhibition is 43%.

As to `COc1ccc(S(=O)(=O)NCCN2CCC(CCC(=O)c3cc(Cl)c(N)cc3OC)CC2)cc1Cl`, the inhibition turned out to be 85%.

For the next assay, the target named is 5-hydroxytryptamine receptor 4 (Cavia porcellus, UniProt O70528). The experiment in a line: Displacement of [3H]-GR113808 from guinea pig brain 5HT4 receptor in presence of serotonin incubated for 30 mins. Type of assay: tissue-based.
Sequence of 5-hydroxytryptamine receptor 4 (O70528 whole entry): as the sequence (O70528 whole entry) above
Conditions: not given
Take `CCCCN1CCC(CCC(=O)c2cc(Cl)c(N)cc2OC)CC1`: the Ki entry is on record as “Active”.

The same assay, now with this note: read-out: Ki.
On to `COc1cc(N)c(Cl)cc1C(=O)CCC1CCN(CCNS(=O)(=O)c2ccc(C)cc2)CC1`, for which the Ki came out at 0.018 µM.

For the molecule `COc1cc(N)c(Cl)cc1C(=O)CCC1CCN(CCNS(=O)(=O)c2cc(Br)ccc2Br)CC1`, the Ki was 0.0163 µM.

On to `COc1cc(N)c(Cl)cc1C(=O)CCC1CCN(CCNS(=O)(=O)c2ccc3c(c2)NC(=O)CO3)CC1`, for which the Ki was 0.0062 µM.

As for `COc1ccc(S(=O)(=O)NCCN2CCC(CCC(=O)c3cc(Cl)c(N)cc3OC)CC2)cc1`, the Ki was 0.0123 µM.

For `COc1cc(N)c(Cl)cc1C(=O)CCC1CCN(CCNS(=O)(=O)c2ccc(NC(C)=O)cc2)CC1`, the Ki came out at 0.0077 µM.

Consider `COc1cc(N)c(Cl)cc1C(=O)CCC1CCN(CCNS(=O)(=O)c2ccc3c(c2)N(C)CCO3)CC1`, for which the Ki came to 0.05 µM.

Take `COc1cc(N)c(Cl)cc1C(=O)CCC1CCN(CCNS(=O)(=O)c2ccc(OC)c(N3CCN(C)CC3)c2)CC1`: the Ki was found to be 0.00346 µM.

Turning to `COc1ccc(S(=O)(=O)NCCN2CCC(CCC(=O)c3cc(Cl)c(N)cc3OC)CC2)cc1Cl`, the Ki is 0.0225 µM.

For orientation: inhibition means the share of the control response that was lost under treatment. What is called Ki is the equilibrium dissociation constant of an inhibitor or competing ligand from its target.
